These results are taken from BindingDB's records for PubMed 7616416 (Third Tokushima Institute of New Drug Research, 1995).

For this assay, the target named is D(2) dopamine receptor (Rattus norvegicus, UniProt P61169).

Where “and” joins values, the source holds several entries; their conditions need not be identical. Identical values can stand only once.

Chain of D(2) dopamine receptor (P61169 whole entry): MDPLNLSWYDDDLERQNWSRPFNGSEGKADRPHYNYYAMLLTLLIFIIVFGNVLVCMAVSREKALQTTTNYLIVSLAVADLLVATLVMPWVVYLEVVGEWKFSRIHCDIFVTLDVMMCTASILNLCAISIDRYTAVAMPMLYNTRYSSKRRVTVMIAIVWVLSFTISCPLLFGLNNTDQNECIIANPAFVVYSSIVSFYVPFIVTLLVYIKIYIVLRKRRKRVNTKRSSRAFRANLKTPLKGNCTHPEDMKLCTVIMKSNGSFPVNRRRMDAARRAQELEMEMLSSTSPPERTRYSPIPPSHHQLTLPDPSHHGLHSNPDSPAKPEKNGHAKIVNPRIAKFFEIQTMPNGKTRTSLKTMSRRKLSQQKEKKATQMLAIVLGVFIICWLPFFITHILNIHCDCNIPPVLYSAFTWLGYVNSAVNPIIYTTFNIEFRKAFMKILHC

Take `Cc1cccc(N2CCN(CCCOc3ccc4ccc(=O)[nH]c4c3)CC2)c1C` [NSC_163839]: the Ki (usually a dissociation constant, usually derived from enzyme kinetics or from competition with a known ligand) was 19.8 nM and 18 nM and 9.8 nM.
